Measured values published in BigSolDB 2.1.

COc1ccccc1OCCNCC(O)COc1cccc2[nH]c3ccccc3c12 (stereo not given)
Conditions	solubility (mole fraction)
in PEG-400, 288.15 K	0.0501
in PEG-400, 293.15 K	0.0539
in PEG-400, 298.15 K	0.0582
in PEG-400, 303.15 K	0.062
in PEG-400, 308.15 K	0.0661

solubility (mole fraction)
Conditions	288.15 K	293.15 K	298.15 K	303.15 K	308.15 K
in THF	0.0211	0.0235	0.0261	0.0291	0.0321
in acetone	0.0125	0.0147	0.0173	0.0201	0.023
in dichloromethane	0.00254	0.00334	0.00429	0.00556	0.00722
in ethanol	0.000677	0.000846	0.00106	0.00128	0.00158
in ethyl acetate	0.0015	0.00189	0.00239	0.00292	0.00362
in glycerin	0.000273	0.000307	0.000342	0.00038	0.000421
in isopropanol	0.000421	0.000555	0.000726	0.000947	0.00124
in methanol	0.000767	0.000959	0.0012	0.00149	0.00185
in n-butanol	0.000678	0.00079	0.000924	0.00108	0.00125
in n-propanol	0.000634	0.000791	0.000996	0.00122	0.00149
in propylene glycol	0.00138	0.00155	0.00174	0.00193	0.00213
